Measurements as given in a melting point compilation (Tetko et al.; mined from patent text by program, amines drawn as free bases though some values may be those of a salt).

Compound | melting point [°C]
O=C1c2ccccc2C(=O)N1C(Cc1ccccc1)CP(=O)(O)O (stereo unspecified) | 127 to 130
COc1ccc(C(=O)NC2N=C(c3ccccc3F)c3ccccc3NC2=O)cc1OC (racemic) | 206 to 208
CCc1cccc2c3c([nH]c12)C(C)(CC(=O)O)CCCC3 (stereo unspecified) | 148 to 151
COc1csc(C(=O)C2C(=O)N(C(N)=O)c3ccc(Cl)cc32)c1 (stereo unspecified) | 221 to 223
C=CCOc1cc(-n2nc(C)c(C)c2C)c(F)cc1Cl | 97 to 99
CC(=O)Nc1ccc(C#N)cc1I | 176 to 181
COc1ccc(CN2CCC(N3Cc4cc(Cl)c(S(N)(=O)=O)cc4C3=O)CC2)cc1 | 207 to 210
CSc1cc(C(=O)c2cc(C(C)(C)C)c(O)c(C(C)(C)C)c2)cn1C | 173 to 175
CCOC(=O)c1cc(C(=O)NC)nc(C(=O)NC)c1 | 183 to 184
CCCCN1Cc2[nH]c3ccccc3c2C1 | 151 to 152
C=CC=C1SC(=S)N(CC(=O)O)C1=O | 144 to 146
C[C@@H](OS(C)(=O)=O)C(=O)N1C(=O)N(C)C[C@H]1C(=O)OCc1ccccc1 | 98 to 102
CNC1(C2CCCCC2)C(=O)Nc2ccc(Cl)cc21 (stereo unspecified) | 195 to 198
NC(=O)CCC(Nc1ccc2ccccc2n1)C(=O)O (stereo unspecified) | 222 to 226
CCn1c2c(c3ccccc31)SCCC2(C)C=O (stereo unspecified) | 88.5 to 90
CCC1c2c(ncn2CC)CCN1C(=O)NC(C)C (stereo unspecified) | 155
Cc1cccc(N2CC(=O)N(c3ccc(S(N)(=O)=O)cc3Cl)C2)c1 | 198 to 202
Fc1ccc(-c2nc(SC(F)(F)C(F)F)[nH]c2-c2cccs2)cc1 | 164 to 168
Sc1nccn1Cc1ccccc1Cl | 206 to 207
CC1=C(C(=O)N(C)C)C(c2ccccc2Cl)c2c[nH]nc2N1 (stereo unspecified) | 229
CC(C)C1NS(=O)(=O)N(CCl)C1=O (stereo unspecified) | 71 to 72
CC(C)(C)NS(=O)(=O)c1c(S)cccc1C(F)(F)F | 139
Cn1c(C(F)(F)F)ccc(-c2c(Cl)cc(Cl)c3oc(C(Br)(Br)Br)cc23)c1=O | 225 to 227
CC(=O)NCc1ccc(CCl)cc1 | 116 to 118

Compound | melting point [°C]
CC(=O)Oc1cc(C)c(C)c(C)c1C1(OC(C)=O)C(=O)c2ccccc2C1=O | 238 to 242
Cc1csc2cc(C(=O)O)ccc12 | 230 to 232
CN1CC(CNN)CC2c3cccc4c3c(cn4C)CC21 (stereo unspecified) | 102 to 103
CCCC(C)(C(=O)N(C)C)n1cc(C)c(-c2ccccc2)n1 (stereo unspecified) | 90 to 92
CC(=O)c1c(CCc2ccc(F)cc2)[nH]c2ccc(Cl)cc12 | 170 to 172
CC(C)OC(=O)c1c(S(C)(=O)=O)ccc(C(=O)O)c1Cl | 114 to 118
N#CN1CCC(c2n[nH]c3cc(Cl)ccc23)CC1 | 180 to 188
O=C(O)C1CCc2c(c3ccccc3n2C(=O)c2ccc(F)cc2)C1 (stereo unspecified) | 180 to 182
c1ccc2c(c1)CCCC2N1CCCNCC1 (stereo unspecified) | 107 to 109
CN1C(=O)C2C3CCC(C3)C2(c2ccc(N)cc2)C1=O (stereo unspecified) | 131 to 133
Nc1ccc2c(c1)CNC2 | 113 to 119
CC(=O)Oc1cc([N+](=O)[O-])ccc1CBr | 76.5 to 78
CCOc1ccnc(F)c1NC(=O)OC(C)(C)C | 130 to 131
O=C1c2c(-c3ccccc3)noc2CCC1CN1CCOCC1 (stereo unspecified) | 140 to 141
COC(=O)C1=C(C=O)NC(C)=C(C(=O)OCC(C)(C)C)C1c1ccccc1C#N (stereo unspecified) | 141 to 143
COc1ccc(OC(=O)Nc2cc(C(=O)O)cc(C(=O)O)c2)cc1 | > 300
COc1ccc(C2=CCOCC2)cc1[N+](=O)[O-] | 117 to 120
COC(=O)C(C(=O)OC)c1cccc2c1NC(=O)C2 | 161 to 162
CCOC(=O)CC[C@H](NC(=O)OCc1ccccc1)C(=O)O | 82 to 84
O=C(O)CCCc1cc2nc(Cl)ccc2n1S(=O)(=O)c1ccc2snnc2c1 | 227
CCNC(=O)n1nc(Oc2c(Cl)cc(C(F)(F)F)cc2Cl)cc1CC | 86 to 89
CC(=O)N[C@@H](C(=O)Oc1ccccc1)C(C)(C)SN=O | 120
COc1ccc(C(=O)OC2CC3C(=O)NC4(C(=O)NS(=O)(=O)C5CC5)CC4C=CCOCCCC(NC(=O)OC(C)(C)C)C(=O)N3C2)cc1 (stereo unspecified) | 145 to 147
O=c1[nH]c2cc3c(cc2nc1-c1ccccc1)OC(F)(F)O3 | 291 to 292

Compound | melting point [°C]
CCOC(=O)COc1ccc(CCCOC(=O)NCC2CC2)c(Oc2ncc(C(F)(F)F)cc2Cl)c1 | 113
NS(=O)(=O)c1ccc(NC(=O)[C@@H]2CCCN2C(=O)OCc2ccccc2)cc1 | 165 to 166
OCC1OC(n2cnc3c(SCc4ccccc4)cc(Cl)nc32)C(O)C1O (stereo unspecified) | 154 to 156
CC(=O)NC[C@H]1CN(c2ccc(N3CCC4(CC3)OCCS4)c(F)c2)C(=O)O1 | 160 to 164
CCCCCCCCCCC1CNC(=O)O1 (stereo unspecified) | 86 to 87
CC(C)(C)C(=O)COc1ccc(-c2ccc(Cl)cc2)cc1 | 90
CC(=O)Nc1cccc(/C=C/C(=O)O)c1C | 265 to 267
CC(c1cccc(C(F)(F)F)c1N)S(C)(=O)=O (stereo unspecified) | 153 to 155
BrCc1ccc2c(c1)C1(c3ccccc3-2)c2ccccc2-c2ccc(CBr)cc21 | 175 to 177
Cc1c(Cl)c(C(=O)O)cc([N+](=O)[O-])c1Cl | 152 to 154
COC(=O)c1ccc(Cc2cc3cc(C(F)(F)F)ccc3[nH]2)cc1 | 127
CC1(c2cc(-c3cccc(CC4SC(N5CCCC5)=NC4=O)c3)ccc2O)CCCCC1 (stereo unspecified) | 109 to 110
CC(=O)c1cc(CS(C)(=O)=O)ccc1O | 142 to 144
C[Si](C)(C)CCCCCCCCCCCCCCNc1ccc(C(=O)O)cc1 | 105 to 107
CC(C)(C)OC(=O)Nc1ccc(C#Cc2ccc(Cl)cc2)cc1N | 170 to 173
O=C(Nc1ccc(O)cc1)OCC(Cl)(Cl)Cl | 134
O=C(O)C1C=CCn2c(=O)n(CO)c(=O)n21 (stereo unspecified) | 175 to 178
CC(=Cc1ccc(N(C)C)cc1)C(=O)O | 190 to 194
Cc1cccc2sc(COc3ccc(F)c(C(N)=O)c3F)nc12 | 201 to 202
CC(C)(C)OC(=O)N1CCCC[C@H]1C(OC(=O)Nc1ccc2[nH]ncc2c1)c1cccc(C(=O)O)c1 (stereo partly specified) | 178
CCNC(=O)c1sc(C=O)cc1[Si](C)(C)C | 62 to 65
CC(=O)OC1CC2CCC3C(CCC4(C)C3CC(N3CCCCC3)C4OC(C)=O)C2(C)CC1N1CCOCC1 (stereo unspecified) | 119 to 128

Continued, values first:

melting point [°C] | Compound
119 | C=CCn1c(C)nc2c3c(ccc21)[C@@H](OCCF)[C@H](OC(=O)C(C)(C)C)[C@@H](c1ccccc1)O3
139 to 141 | COC(C)Cc1nc2c(N)nc3ccccc3c2n1CC(C)C (stereo unspecified)
150 to 152 | CC(C)(C)ON=C1CC(c2ccc(S(C)(=O)=O)cc2)=C1c1ccccc1
140 to 146 | Cc1noc(NS(=O)(=O)c2ccccc2-c2ccc(-c3ncco3)cc2Cn2cccn2)c1C
205 to 209 | COc1ccc(NC(=O)c2ccc(F)c(F)c2)cc1NS(=O)(=O)c1cccc(N)c1
222 to 224 | CC1=NC(NC(=O)Nc2cccc(C)c2)C(=O)N(CC(=O)N(C)c2ccccn2)c2c(C)cccc21 (stereo unspecified)
194 to 197 | COc1ccccc1-c1ccc(OCC(=O)Nc2cscc2C(=O)O)nc1
45 to 47 | COC(=O)[C@H](Cc1c[nH]cn1)NC(=O)C(CCCCc1ccccc1)Cc1cccc2ccccc12 (stereo partly specified)
111 | CC(=O)c1ccccc1NC(=O)CN1CCN(CCCC=C(c2ccc(F)cc2)c2ccc(F)cc2)C(C(N)=O)C1 (stereo unspecified)
188 | COc1cc(Nc2c(C#N)cnc3cc(-c4ccc(CN5CCOCC5)s4)ccc23)c(Cl)cc1Cl
160 to 161 | CCCCn1c(=O)c(NC(=O)Nc2c(C(C)C)cc(NCc3cccnc3)cc2C(C)C)c(-c2cccc(OC)c2)c2cccnc21
160 to 163 | CCN(CC)C(=O)COC(=O)c1cccc(NC(=O)C(CS)Cc2ccccc2)c1 (stereo unspecified)
205 to 206 | CCOC(=O)c1cccc2nc(C)n(Cc3ccc(-c4ccccc4-c4nnn[nH]4)cc3)c12
233 to 234 | CCOC(=O)c1cnc(Nc2cccc(OC)c2)[nH]c1=O
258 to 259 | COc1ccc(-c2c(Cl)c(CN3C(=O)CCC3=O)nc3sc4c(c23)CCC(C(=O)O)C4)cc1 (stereo unspecified)
142 to 144 | CC(C)(C)[Si](C)(C)Oc1ccc2c(c1)oc(=O)c1c3ccc(O[Si](C)(C)C(C)(C)C)cc3sc21

melting point [°C] | Compound
75 to 78 | COC(=O)/C=C/[C@@H](c1ccc2ccccc2c1)c1cccc2c1ccn2C(=O)OC(C)(C)C
179 to 182 | C=C(c1c(C)n(CC)c2ccccc12)c1c(C)n(CC)c2ccccc12
272 to 274 | COC(=O)Nc1nc(-c2ccccc2)c(-c2nc3ccccc3c(=O)n2-c2ccc(OC)cc2)s1
80 to 90 | CCc1oc2ccccc2c1C(=O)N(C)Cc1ccc2cc(O)ccc2c1
195 to 196 | OC(CCc1ccccc1)c1cnc2sc3cc(F)ccc3n12 (stereo unspecified)
239 to 242 | CCOCc1nc2c(N)nc3cc(-c4ccccc4)ccc3c2n1CC(C)(C)NS(C)(=O)=O
89 to 90 | O=c1c(Br)cc(Cc2ccccc2)cn1Cc1ccccc1
111 | c1cc(CN2CCCCC2)cc(OCCCNc2ncnc3ccccc23)c1
47 to 49 | CCC(C(=O)N(CC)CC)n1cc(Cl)c(-c2ccccc2)n1 (stereo unspecified)
230 to 231 | COc1cc(C=CC=C2SC(=O)NC2=O)ccc1OCc1coc(-c2ccccc2)n1
122 to 124 | COc1ccc(C2Sc3c(ccc4ccccc34)N(CCN(C)C)C(=O)C2OC(C)=O)cc1 (stereo unspecified)
110 to 112 | Cc1cc(C)c(Cc2cnc(NCCCCc3ncc(Br)cc3C)[nH]c2=O)cn1
62 to 66 | CO[C@]1(c2cccc(OCc3ccc4c(ccc(=O)n4C)c3)c2)CCOC[C@H]1O (racemic)
56 to 57 | O=C(CCOCc1ccc2ccccc2c1)c1ccccc1
93 to 95 | CCCCC(Cc1ccc(OCCNC(=O)c2ccc(-c3ccc(C(=O)OC)cc3)cc2)cc1)C(=O)OCC (stereo unspecified)
